Data taken from patent US12503438B2, “Compounds for the treatment of kinase-dependent disorders” (Exelixis, Inc., priority 2019, dated 2025).

Legend:
KDR = KDR (Homo sapiens, UniProt P35968); experiment: KDR autophosphorylation ELISA in HUVEC cells; format: cell-based; parameters: endogenous in cells; host or cells: HUVEC (Lonza #C2519A); conditions: cellular activity, VEGF165-stimulated, phospho-KDR ELISA
Outline: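 Compound pretreatment (1 h, 0.3% DMSO) of serum-starved HUVEC preceded a 5 min pulse of 100 ng/mL VEGF165, after which cells were lysed. Phospho-KDR was quantified by ELISA relative to stimulated and unstimulated controls.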

AXL = target: T1, AXL (Homo sapiens, UniProt P30530); experiment: AXL autophosphorylation ELISA in A-172 cells; format: cell-based; conditions: cellular activity, Gas6-stimulated, phospho-AXL ELISA
T1 construct: endogenous in cells; host or cells: A-172 glioblastoma cells (ATCC #CRL-1620)
T1 sequence (P30530 26-894): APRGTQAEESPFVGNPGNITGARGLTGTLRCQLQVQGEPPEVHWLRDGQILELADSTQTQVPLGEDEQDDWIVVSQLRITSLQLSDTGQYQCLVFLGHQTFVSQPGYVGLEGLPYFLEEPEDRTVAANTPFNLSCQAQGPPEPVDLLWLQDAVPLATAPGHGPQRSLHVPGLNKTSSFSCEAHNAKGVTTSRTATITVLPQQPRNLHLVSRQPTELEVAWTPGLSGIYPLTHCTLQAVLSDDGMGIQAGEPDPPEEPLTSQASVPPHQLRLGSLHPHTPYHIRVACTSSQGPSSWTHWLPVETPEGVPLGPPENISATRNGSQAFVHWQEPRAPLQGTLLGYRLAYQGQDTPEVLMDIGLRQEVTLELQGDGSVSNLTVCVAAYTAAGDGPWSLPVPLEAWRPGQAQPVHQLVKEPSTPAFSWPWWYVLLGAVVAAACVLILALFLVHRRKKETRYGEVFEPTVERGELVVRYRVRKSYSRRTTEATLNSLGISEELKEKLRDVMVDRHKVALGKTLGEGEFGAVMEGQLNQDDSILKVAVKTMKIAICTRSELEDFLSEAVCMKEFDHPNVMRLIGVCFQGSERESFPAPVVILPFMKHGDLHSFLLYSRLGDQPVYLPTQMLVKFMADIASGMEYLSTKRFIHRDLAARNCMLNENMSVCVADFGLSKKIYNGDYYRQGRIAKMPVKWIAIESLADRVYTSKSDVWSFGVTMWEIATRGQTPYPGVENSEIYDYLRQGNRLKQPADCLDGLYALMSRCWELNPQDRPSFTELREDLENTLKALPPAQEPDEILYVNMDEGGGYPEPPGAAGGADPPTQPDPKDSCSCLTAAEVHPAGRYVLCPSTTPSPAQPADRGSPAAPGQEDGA
Outline: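 Serum-starved (24 h) A-172 glioblastoma cells got an 8-point compound series (0.3% DMSO) for 1 h, then 1 μg/mL human Gas6 for 15 min. Lysate phospho-AXL quantified by ELISA against phospho-AXL standard, normalized to DMSO and reference-inhibitor controls; IC50 by 4-parameter logistic fit.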

Chain of KDR (P35968 20-1356): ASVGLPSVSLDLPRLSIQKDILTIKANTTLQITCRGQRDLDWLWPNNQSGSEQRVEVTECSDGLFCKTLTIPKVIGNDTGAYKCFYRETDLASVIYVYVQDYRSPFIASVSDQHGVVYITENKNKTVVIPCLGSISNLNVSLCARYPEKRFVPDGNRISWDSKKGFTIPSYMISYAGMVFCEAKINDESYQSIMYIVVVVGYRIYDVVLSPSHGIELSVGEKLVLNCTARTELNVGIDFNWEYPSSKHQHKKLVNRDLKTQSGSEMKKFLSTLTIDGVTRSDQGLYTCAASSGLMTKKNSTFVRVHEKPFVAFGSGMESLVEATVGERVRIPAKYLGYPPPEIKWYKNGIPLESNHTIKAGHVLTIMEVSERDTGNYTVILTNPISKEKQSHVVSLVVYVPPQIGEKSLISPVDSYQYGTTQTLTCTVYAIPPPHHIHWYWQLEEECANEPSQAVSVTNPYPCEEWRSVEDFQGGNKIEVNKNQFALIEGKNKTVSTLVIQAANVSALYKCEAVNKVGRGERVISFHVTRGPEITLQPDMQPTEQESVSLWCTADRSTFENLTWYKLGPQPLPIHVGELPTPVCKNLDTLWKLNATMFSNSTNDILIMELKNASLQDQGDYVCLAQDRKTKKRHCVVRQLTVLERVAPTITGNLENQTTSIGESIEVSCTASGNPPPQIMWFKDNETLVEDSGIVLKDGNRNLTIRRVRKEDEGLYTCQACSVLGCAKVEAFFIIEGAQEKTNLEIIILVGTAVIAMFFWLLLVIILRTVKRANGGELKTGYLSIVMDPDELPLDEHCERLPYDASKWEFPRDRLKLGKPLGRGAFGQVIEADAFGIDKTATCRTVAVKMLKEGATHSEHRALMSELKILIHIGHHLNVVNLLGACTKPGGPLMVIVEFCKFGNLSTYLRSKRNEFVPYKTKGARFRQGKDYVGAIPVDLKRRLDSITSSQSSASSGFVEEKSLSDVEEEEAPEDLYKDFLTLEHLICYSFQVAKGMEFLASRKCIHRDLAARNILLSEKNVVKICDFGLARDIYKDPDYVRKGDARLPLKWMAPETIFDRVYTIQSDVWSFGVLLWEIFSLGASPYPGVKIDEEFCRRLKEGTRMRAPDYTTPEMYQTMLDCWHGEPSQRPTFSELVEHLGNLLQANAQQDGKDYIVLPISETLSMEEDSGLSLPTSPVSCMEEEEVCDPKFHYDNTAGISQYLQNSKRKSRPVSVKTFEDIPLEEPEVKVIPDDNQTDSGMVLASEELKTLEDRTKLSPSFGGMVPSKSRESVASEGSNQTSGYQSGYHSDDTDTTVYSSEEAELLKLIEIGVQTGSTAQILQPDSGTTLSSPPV

| Compound | IC50 (KDR) [nM] | IC50 (AXL) [nM] |
| --- | --- | --- |
| O=C(Nc1ccc(F)cc1)C1(C(=O)Nc2ccc(Oc3ccnc4cc(-c5cccnc5O)ccc34)cc2)CC1 [Compound 52, 1-N′-(4-Fluorophenyl)-1-N-[4-[7-(2-hydroxypyridin-3-yl)quinolin-4-yl]oxyphenyl]cyclopropane-1,1-dicarboxamide] | 10 to 100 | 100 to 300 |
| Cc1noc(C)c1-c1ccc2c(Oc3ccc(NC(=O)C4(C(=O)Nc5ccc(F)cc5)CC4)cc3)ccnc2c1 [Compound 53, 1-N-[4-[7-(3,5-Dimethyl-1,2-oxazol-4-yl)quinolin-4-yl]oxyphenyl]-1-N′-(4-fluorophenyl)cyclopropane-1,1-dicarboxamide] | 100 to 300 | 100 to 300 |
| Cn1nccc1-c1ccc2c(Oc3ccc(NC(=O)C4(C(=O)Nc5ccc(F)cc5)CC4)cc3)ccnc2c1 [Compound 54, 1-N′-(4-Fluorophenyl)-1-N-[4-[7-(2-methylpyrazol-3-yl)quinolin-4-yl]oxyphenyl]cyclopropane-1,1-dicarboxamide] | 10 to 100 | 10 to 100 |
| O=C(Nc1ccc(F)cc1)C1(C(=O)Nc2ccc(Oc3ccnc4cc(-c5cnoc5)ccc34)cc2)CC1 [Compound 57, 1-N′-(4-Fluorophenyl)-1-N-[4-[7-(1,2-oxazol-4-yl)quinolin-4-yl]oxyphenyl]cyclopropane-1,1-dicarboxamide] | 10 to 100 | ≤ 10 |
| O=C(Nc1ccc(F)cc1)C1(C(=O)Nc2ccc(Oc3ccnc4cc(-c5cnn(C6CCNCC6)c5)ccc34)cc2)CC1 [Compound 60, 1-N′-(4-Fluorophenyl)-1-N-[4-[7-(1-piperidin-4-ylpyrazol-4-yl)quinolin-4-yl]oxyphenyl]cyclopropane-1,1-dicarboxamide] | 10 to 100 | ≤ 10 |
| CN1CCC(n2cc(-c3ccc4c(Oc5ccc(NC(=O)C6(C(=O)Nc7ccc(F)cc7)CC6)cc5)ccnc4c3)cn2)CC1 [Compound 61, 1-N′-(4-Fluorophenyl)-1-N-[4-[7-[1-(1-methylpiperidin-4-yl)pyrazol-4-yl]quinolin-4-yl]oxyphenyl]cyclopropane-1,1-dicarboxamide] | 10 to 100 | ≤ 10 |
| CC(=O)N1CCC(n2cc(-c3ccc4c(Oc5ccc(NC(=O)C6(C(=O)Nc7ccc(F)cc7)CC6)cc5)ccnc4c3)cn2)CC1 [Compound 62, 1-N-[4-[7-[1-(1-Acetylpiperidin-4-yl)pyrazol-4-yl]quinolin-4-yl]oxyphenyl]-1-N′-(4-fluorophenyl)cyclopropane-1,1-dicarboxamide] | ≤ 10 | ≤ 10 |
| C[Si](C)(C)C#Cc1ccc2c(Oc3ccc(NC(=O)C4(C(=O)Nc5ccc(F)cc5)CC4)cc3)ccnc2c1 [Compound 63, 1-N′-(4-Fluorophenyl)-1-N-[4-[7-(2-trimethylsilylethynyl)quinolin-4-yl]oxyphenyl]cyclopropane-1,1-dicarboxamide] | > 300 | > 300 |
| C#Cc1ccc2c(Oc3ccc(NC(=O)C4(C(=O)Nc5ccc(F)cc5)CC4)cc3)ccnc2c1 [Compound 64, 1-N-[4-(7-Ethynylquinolin-4-yl)oxyphenyl]-1-N′-(4-fluorophenyl)cyclopropane-1,1-dicarboxamide] | 100 to 300 | > 300 |
| O=C(Nc1ccc(F)cc1)C1(C(=O)Nc2ccc(Oc3ccnc4cc(-c5cnn[nH]5)ccc34)cc2)CC1 [Compound 65, 1-N′-(4-Fluorophenyl)-1-N-[4-[7-(1H-triazol-5-yl)quinolin-4-yl]oxyphenyl]cyclopropane-1,1-dicarboxamide] | > 300 | > 300 |
| O=C(Nc1ccc(F)cc1)C1(C(=O)Nc2ccc(Oc3ccnc4cc(-c5ncco5)ccc34)cc2)CC1 [Compound 66, 1-N′-(4-Fluorophenyl)-1-N-[4-[7-(1,3-oxazol-2-yl)quinolin-4-yl]oxyphenyl]cyclopropane-1,1-dicarboxamide] | 10 to 100 | 10 to 100 |
| O=C(Nc1ccc(F)cc1)C1(C(=O)Nc2ccc(Oc3ccnc4cc(-c5cn[nH]c5)ccc34)cc2)CC1 [Compound 67, 1-N′-(4-Fluorophenyl)-1-N-[4-[7-(1H-pyrazol-4-yl)quinolin-4-yl]oxyphenyl]cyclopropane-1,1-dicarboxamide] | ≤ 10 | ≤ 10 |
| O=C(Nc1ccc(F)cc1)C1(C(=O)Nc2ccc(Oc3ccnc4cc(-c5ccn[nH]5)ccc34)cc2)CC1 [Compound 68, 1-N′-(4-Fluorophenyl)-1-N-[4-[7-(1H-pyrazol-5-yl)quinolin-4-yl]oxyphenyl]cyclopropane-1,1-dicarboxamide] | ≤ 10 | ≤ 10 |
| Cn1cnc(-c2ccc3c(Oc4ccc(NC(=O)C5(C(=O)Nc6ccc(F)cc6)CC5)cc4)ccnc3c2)c1 [Compound 69, 1-N′-(4-Fluorophenyl)-1-N-[4-[7-(1-methylimidazol-4-yl)quinolin-4-yl]oxyphenyl]cyclopropane-1,1-dicarboxamide] | ≤ 10 | ≤ 10 |
| O=C(Nc1ccc(F)cc1)C1(C(=O)Nc2ccc(Oc3ccnc4cc(-c5cnc[nH]5)ccc34)cc2)CC1 [Compound 72, 1-N′-(4-Fluorophenyl)-1-N-[4-[7-(1H-imidazol-5-yl)quinolin-4-yl]oxyphenyl]cyclopropane-1,1-dicarboxamide] | ≤ 10 | 10 to 100 |
| O=C(Nc1ccc(F)cc1)C1(C(=O)Nc2ccc(Oc3ccnc4cc(-c5nnco5)ccc34)cc2)CC1 [Compound 73, 1-N′-(4-Fluorophenyl)-1-N-[4-[7-(1,3,4-oxadiazol-2-yl)quinolin-4-yl]oxyphenyl]cyclopropane-1,1-dicarboxamide] | 10 to 100 | 10 to 100 |
| O=C(Nc1ccc(F)cc1)C1(C(=O)Nc2ccc(Oc3ccnc4cc(-c5ncc[nH]5)ccc34)cc2)CC1 [Compound 74, 1-N′-(4-Fluorophenyl)-1-N-[4-[7-(1H-imidazol-2-yl)quinolin-4-yl]oxyphenyl]cyclopropane-1,1-dicarboxamide] | ≤ 10 | 10 to 100 |
| Cn1ccnc1-c1ccc2c(Oc3ccc(NC(=O)C4(C(=O)Nc5ccc(F)cc5)CC4)cc3)ccnc2c1 [Compound 75, 1-N′-(4-Fluorophenyl)-1-N-[4-[7-(1-methylimidazol-2-yl)quinolin-4-yl]oxyphenyl]cyclopropane-1,1-dicarboxamide] | 10 to 100 | 10 to 100 |
| COc1cc2c(Oc3ccc(NC(=O)C4(C(=O)Nc5ccc(F)cc5)CC4)cc3)ccnc2cc1-c1cnn(C)c1 [Compound 76, 1-N′-(4-Fluorophenyl)-1-N-[4-[6-methoxy-7-(1-methylpyrazol-4-yl)quinolin-4-yl]oxyphenyl]cyclopropane-1,1-dicarboxamide] | 10 to 100 | ≤ 10 |
| CNC(=O)c1cc2c(Oc3ccc(NC(=O)C4(C(=O)Nc5ccc(F)cc5)CC4)cc3)ccnc2cc1-c1cnn(C)c1 [Compound 77, 1-N′-(4-Fluorophenyl)-1-N-[4-[6-(methylcarbamoyl)-7-(1-methylpyrazol-4-yl)quinolin-4-yl]oxyphenyl]cyclopropane-1,1-dicarboxamide] | 10 to 100 | 10 to 100 |
| Cc1cc2c(Oc3ccc(NC(=O)C4(C(=O)Nc5ccc(F)cc5)CC4)cc3)ccnc2cc1-c1cnn(C)c1 [Compound 78, 1-N′-(4-Fluorophenyl)-1-N-[4-[6-methyl-7-(1-methylpyrazol-4-yl)quinolin-4-yl]oxyphenyl]cyclopropane-1,1-dicarboxamide] | 10 to 100 | 10 to 100 |
| CS(=O)(=O)n1cc(-c2ccc3c(Oc4ccc(NC(=O)C5(C(=O)Nc6ccc(F)cc6)CC5)cc4)ccnc3c2)cn1 [Compound 79, 1-N′-(4-Fluorophenyl)-1-N-[4-[7-(1-methylsulfonylpyrazol-4-yl)quinolin-4-yl]oxyphenyl]cyclopropane-1,1-dicarboxamide] | ≤ 10 | ≤ 10 |
| CC1Cc2cc(F)ccc2N1C(=O)C1(C(=O)Nc2ccc(Oc3ccnc4cc(-c5cnn(C)c5)ccc34)cc2)CC1 (stereo not shown) [Compound 80, 1-(5-Fluoro-2-methyl-2,3-dihydroindole-1-carbonyl)-N-[4-[7-(1-methylpyrazol-4-yl)quinolin-4-yl]oxyphenyl]cyclopropane-1-carboxamide] | > 300 | 10 to 100 |
